The assay in a line: Growth inhibitory activity against mouse lymphoblastoid L1210TS cell line was determined as inhibition of thymidylate synthase.

Regarding `C#CCN(Cc1cc2c(=O)n(C)c(CN(CC)CC)nc2cc1Cl)c1ccc(C(=O)NCc2cccnc2)cc1` [4-[(7-Chloro-2-diethylaminomethyl-3-methyl-4-oxo-3,4-dihydro-quinazolin-6-ylmethyl)-prop-2-ynyl-amino]-N-pyridin-3-ylmethyl-benzamide], the 50% inhibitory concentration (IC50) (as a rule, the concentration needed to halve the response being measured) was more than 50 µM.

The record behind these values is BindingDB's records for doi:10.1021/jm011081s (The Institute of Cancer Research, 2002).
